The target in the assay is T1, full-length human PKCι (Homo sapiens, UniProt P41743).
T1 construct: Recombinant, full-length human PKCι expressed in Sf21 insect cells is also commercially available; purchased EMD Millipore; host or cells: Sf21 insect cells (baculovirus)
T1 sequence (P41743 1-596): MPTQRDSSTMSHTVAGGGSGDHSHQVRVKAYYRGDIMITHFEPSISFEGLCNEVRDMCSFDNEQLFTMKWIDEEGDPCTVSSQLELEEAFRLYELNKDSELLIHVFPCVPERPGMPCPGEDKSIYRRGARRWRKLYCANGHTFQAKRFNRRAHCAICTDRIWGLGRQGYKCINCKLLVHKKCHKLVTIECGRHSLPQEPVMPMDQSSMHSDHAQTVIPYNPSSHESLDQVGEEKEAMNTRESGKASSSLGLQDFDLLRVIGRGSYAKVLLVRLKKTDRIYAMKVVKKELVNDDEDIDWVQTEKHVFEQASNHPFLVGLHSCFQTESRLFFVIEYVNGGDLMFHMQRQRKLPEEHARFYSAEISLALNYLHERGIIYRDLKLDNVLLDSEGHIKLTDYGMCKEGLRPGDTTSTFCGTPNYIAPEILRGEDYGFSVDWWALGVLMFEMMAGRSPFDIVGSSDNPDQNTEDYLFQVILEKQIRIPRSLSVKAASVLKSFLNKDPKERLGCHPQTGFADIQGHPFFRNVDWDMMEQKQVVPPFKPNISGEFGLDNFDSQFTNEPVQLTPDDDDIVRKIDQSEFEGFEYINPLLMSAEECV
The assay can be described thus: PKCι IC50 IMAP fluorescence polarisation assay, full-length enzyme, 150 μM ATP. Type of assay: biochemical. The note with it: read-out: IC50 in IMAP assay against full length PKCi at 150 μM ATP. Summed up:
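IMAP fluorescence polarisation kinase assay: 15 pM baculovirus-expressed human PKCiota with 100 nM FAM-pseudosubstrate peptide and 150 μM ATP, 1 h at 25 °C. IMAP detection reagent then 2 h at 25 °C before FP measurement. Inhibition referenced to no-compound and no-enzyme controls for IC50 fitting.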
The term IC50 denotes the concentration that gives 50% inhibition. On to `O[C@@H]1CNCC[C@H]1Nc1nc(-c2ccnc(Nc3ncccc3F)c2)nc2cncc(C3CCC3)c12` (racemic) [Example 286, rac-(3R,4R)-4-{5-Cyclobutyl-2-[2-(3-fluoro-pyridin-2-ylamino)-pyridin-4-yl]-pyrido[3,4-d]pyrimidin-4-ylamino}-piperidin-3-ol], for which the IC50 was below 100 nM.
To `O[C@@H]1CNCC[C@H]1Nc1nc(-c2ccnc(Nc3ncc(F)cc3F)c2)nc2cncc(C3CCC3)c12` (racemic) [Example 287, rac-(3R,4R)-4-{5-Cyclobutyl-2-[2-(3,5-difluoro-pyridin-2-ylamino)-pyridin-4-yl]-pyrido[3,4-d]pyrimidin-4-ylamino}-piperidin-3-ol] belongs below 100 nM; to `C[C@@H]1CNCC[C@H]1Nc1nc(-c2ccnc(Nc3ncccc3F)c2)nc2cncc(C3CCC3)c12` (racemic) [Example 289, {5-Cyclobutyl-2-[2-(3-fluoro-pyridin-2-ylamino)-pyridin-4-yl]-pyrido[3,4-d]pyrimidin-4-yl}-(rac-(3R,4R)-3-methyl-piperidin-4-yl)-amine], below 100 nM; to `C[C@@H]1CNCC[C@H]1Nc1nc(-c2ccnc(Nc3ncc(F)cc3F)c2)nc2cncc(C3CCC3)c12` (racemic) [Example 290, {5-Cyclobutyl-2-[2-(3,5-difluoro-pyridin-2-ylamino)-pyridin-4-yl]-pyrido[3,4-d]pyrimidin-4-yl}-(rac-(3R,4R)-3-methyl-piperidin-4-yl)-amine], below 100 nM.
`C[C@@H]1CNCC[C@H]1Nc1nc(-c2ccnc(Nc3nc(F)cc(F)c3F)c2)nc2cncc(C3CCC3)c12` (racemic) [Example 291, {5-Cyclobutyl-2-[2-(3,4,6-trifluoro-pyridin-2-ylamino)-pyridin-4-yl]-pyrido[3,4-d]pyrimidin-4-yl}-(rac-(3R,4R)-3-methyl-piperidin-4-yl)-amine]: the IC50 is below 100 nM.
For `O[C@H]1CNCC[C@H]1Nc1nc(-c2ccnc(Nc3ncccc3F)c2)nc2cncc(C3CCC3)c12` (racemic) [Example 292, rac-(3S,4R)-4-{5-Cyclobutyl-2-[2-(3-fluoro-pyridin-2-ylamino)-pyridin-4-yl]-pyrido[3,4-d]pyrimidin-4-ylamino}-piperidin-3-ol], the IC50 is below 100 nM.
`O[C@H]1CNCC[C@H]1Nc1nc(-c2ccnc(Nc3ncc(F)cc3F)c2)nc2cncc(C3CCC3)c12` (racemic) [Example 293, rac-(3S,4R)-4-{5-Cyclobutyl-2-[2-(3,5-difluoro-pyridin-2-ylamino)-pyridin-4-yl]-pyrido[3,4-d]pyrimidin-4-ylamino}-piperidin-3-ol]: the IC50 was below 100 nM.
Consider `O[C@H]1CNCC[C@H]1Nc1nc(-c2ccnc(Nc3nc(F)cc(F)c3F)c2)nc2cncc(C3CCC3)c12` (racemic) [Example 294, rac-(3S,4R)-4-{5-Cyclobutyl-2-[2-(3,4,6-trifluoro-pyridin-2-ylamino)-pyridin-4-yl]-pyrido[3,4-d]pyrimidin-4-ylamino}-piperidin-3-ol], for which the IC50 was below 100 nM.
Take `C[C@@H]1CNCC[C@@H]1Nc1nc(-c2ccnc(Nc3nc(F)cc(F)c3F)c2)nc2cncc(C3CCC3)c12` (racemic) [Example 295, {5-Cyclobutyl-2-[2-(3,4,6-trifluoro-pyridin-2-ylamino)-pyridin-4-yl]-pyrido[3,4-d]pyrimidin-4-yl}-(rac-(3R,4S)-3-methyl-piperidin-4-yl)-amine]: the IC50 was below 100 nM.
To `O[C@@H]1CNCC[C@H]1Nc1nc(-c2ccnc(Nc3nc(F)cc(F)c3F)c2)nc2cncc(C3CCC3)c12` (racemic) [Example 296, rac-(3R,4R)-4-{5-Cyclobutyl-2-[2-(3,4,6-trifluoro-pyridin-2-ylamino)-pyridin-4-yl]-pyrido[3,4-d]pyrimidin-4-ylamino}-piperidin-3-ol] belongs below 100 nM; to `C[C@@H]1CNCC[C@@H]1Nc1nc(-c2ccnc(Nc3ncccc3F)c2)nc2cncc(C3CC3)c12` (racemic) [Example 299, {5-Cyclopropyl-2-[2-(3-fluoro-pyridin-2-ylamino)-pyridin-4-yl]-pyrido[3,4-d]pyrimidin-4-yl}-(rac-(3R,4S)-3-methyl-piperidin-4-yl)-amine], 100 to 1000 nM; to `C[C@@H]1CNCC[C@@H]1Nc1nc(-c2ccnc(Nc3ncc(F)cc3F)c2)nc2cncc(C3CC3)c12` (racemic) [Example 300, {5-Cyclopropyl-2-[2-(3,5-difluoro-pyridin-2-ylamino)-pyridiri-4-yl]-pyrido[3,4-d]pyrimidin-4-yl}-(rac-(3R,4S)-3-methyl-piperidin-4-yl)-amine], 100 to 1000 nM.
Take `C[C@@H]1CNCC[C@@H]1Nc1nc(-c2ccnc(Nc3nc(F)cc(F)c3F)c2)nc2cncc(C3CC3)c12` (racemic) [Example 301, {5-Cyclopropyl-2-[2-(3,4,6-trifluoro-pyridin-2-ylamino)-pyridin-4-yl]-pyrido[3,4-d]pyrimidin-4-yl}-(rac-(3R,4S)-3-methyl-piperidin-4-yl)-amine]: the IC50 was below 100 nM.
Turning to `C[C@@H]1CNCC[C@H]1Nc1nc(-c2ccnc(Nc3ncccc3F)c2)nc2cncc(C3CC3)c12` (racemic) [Example 302, {5-Cyclopropyl-2-[2-(3-fluoro-pyridin-2-ylamino)-pyridin-4-yl]-pyrido[3,4-d]pyrimidin-4-yl}-(rac-(3R,4R)-3-methyl-piperidin-4-yl)-amine], the IC50 is below 100 nM.
As for `C[C@@H]1CNCC[C@H]1Nc1nc(-c2ccnc(Nc3ncc(F)cc3F)c2)nc2cncc(C3CC3)c12` (racemic) [Example 303, {5-Cyclopropyl-2-[2-(3,5-difluoro-pyridin-2-ylamino)-pyridin-4-yl]-pyrido[3,4-d]pyrimidin-4-yl}-(rac-(3R,4R)-3-methyl-piperidin-4-yl)-amine], the IC50 is below 100 nM.
As to `C[C@@H]1CNCC[C@H]1Nc1nc(-c2ccnc(Nc3nc(F)cc(F)c3F)c2)nc2cncc(C3CC3)c12` (racemic) [Example 304, {5-Cyclopropyl-2-[2-(3,4,6-trifluoro-pyridin-2-ylamino)-pyridin-4-yl]-pyrido[3,4-d]pyrimidin-4-yl}-(rac-(3R,4R)-3-methyl-piperidin-4-yl)-amine], the IC50 is below 100 nM.
Take `O[C@H]1CNCC[C@H]1Nc1nc(-c2ccnc(Nc3ncccc3F)c2)nc2cncc(C3CC3)c12` (racemic) [Example 305, rac-(3S,4R)-4-{5-Cyclopropyl-2-[2-(3-fluoro-pyridin-2-ylamino)-pyridin-4-yl]-pyrido[3,4-d]pyrimidin-4-ylamino}-piperidin-3-ol]: the IC50 lay within 100 to 1000 nM.
With `O[C@H]1CNCC[C@H]1Nc1nc(-c2ccnc(Nc3ncc(F)cc3F)c2)nc2cncc(C3CC3)c12` (racemic) [Example 306, rac-(3S,4R)-4-{5-Cyclopropyl-2-[2-(3,5-difluoro-pyridin-2-ylamino)-pyridin-4-yl]-pyrido[3,4-d]pyrimidin-4-ylamino}-piperidin-3-ol] the figure was 100 to 1000 nM.
For the compound `O[C@H]1CNCC[C@H]1Nc1nc(-c2ccnc(Nc3nc(F)cc(F)c3F)c2)nc2cncc(C3CC3)c12` (racemic) [Example 307, rac-(3S,4R)-4-{5-Cyclopropyl-2-[2-(3,4,6-trifluoro-pyridin-2-ylamino)-pyridin-4-yl]-pyrido[3,4-d]pyrimidin-4-ylamino}-piperidin-3-ol], the IC50 was below 100 nM.

Values taken from US10414763B2 (CANCER RESEARCH TECHNOLOGY LIMITED, priority 2014, dated 2019).
